The test system of experiment [1] is human dermal fibroblast cell line, CRL2071. Nature of the experiment: Production of collagen type I (ELISA). Type of experiment: cell-based. Here is the method:
Cells from the human dermal fibroblast cell line, CRL2071 (passages 12-14), obtained from normal breast skin of a person, were allowed to attach for 6-8 hours before the addition of the test compounds. After 72 h of exposure to the test articles the media was removed, cells counted and the cell-associated fraction extracted. The media and cell-associated fraction were analysed for the concentration of collagen type I using a Chondrex Human type I Collagen Detection Kit ELISA (Cat #6021).
After complete dissolution the solutions were sterile filtered through a […] syringe filter and kept at 4° C. until use. Prior to each experiment dilutions were freshly prepared by diluting to 100 nM, 1 μM or 10 μM in cell-specific media.
The test compounds, positive controls and no treatment media were added to the flasks (2.5 ml/flask) and cells were incubated for 72 h before removal of the supernatant. After removal of the supernatant, cell monolayers were trypsinsed with 2.5 ml of 0.025% trypsin/[…] in PBS to each flask. After cell detachment (7-10 min), 1 ml of the cell/trypsin mixture was added to a 20 ml counting vial containing 9 ml of normal saline. The cells were quantitated with a Coulter Counter Z2.
In some treatments cells were found floating. They were collected, counted and subjected to viability testing using 1% trypan blue staining. The remaining 1.5 ml of trypsin/cell mixture was sonicated with a Branson tip-probed sonicator for 1 min, setting 6 before centrifugation at 10,000 rpm for 10 min. The supernatant was removed and used in the collagen ELISA for the quantitation of cell-associated collagen.

The subject of another experiment is testicular hyaluronidase. Nature of the experiment: Inhibition of hyaluronidase (turbidimetric). The format is biochemical. Here is the method: The heparanase inhibitors were incubated with testicular hyaluronidase in the presence of hyaluronan and after incubation the amount of hyaluronic acid remaining was quantitated. Hyaluronidase activity was measured according to the method of Tolksdorf [Tolksdorf, S. & McCready, M. H., The turbometric determination of hyaluronidase, The Journal of Laboratory and Clinical Medicine, 1949, 34(1):74-89]. Hyaluronic acid is measured by its ability to form turbidity with an acid albumin solution. […] One unit is based on the change in absorbency (turbidity) at 540 nm of an internal USP standard. All tubes were placed in a boiling water bath for 5 min and then cooled to room temperature. On cooling 9.0 ml of albumin reagent was added and tubes were allowed to stand for 10 min. Readings of absorbance at 540 nm in a Pharmacia Novatec Model II were taken. The A540nm was plotted versus the hyaluronic acid concentration (mg) to form a standard curve.

In experiment [2] the target is T1, cellular tyrosinase, human primary epidermal melanocyte cell line (PCS-200-013) (Homo sapiens, UniProt P14679).
T1 sequence (P14679 19-529): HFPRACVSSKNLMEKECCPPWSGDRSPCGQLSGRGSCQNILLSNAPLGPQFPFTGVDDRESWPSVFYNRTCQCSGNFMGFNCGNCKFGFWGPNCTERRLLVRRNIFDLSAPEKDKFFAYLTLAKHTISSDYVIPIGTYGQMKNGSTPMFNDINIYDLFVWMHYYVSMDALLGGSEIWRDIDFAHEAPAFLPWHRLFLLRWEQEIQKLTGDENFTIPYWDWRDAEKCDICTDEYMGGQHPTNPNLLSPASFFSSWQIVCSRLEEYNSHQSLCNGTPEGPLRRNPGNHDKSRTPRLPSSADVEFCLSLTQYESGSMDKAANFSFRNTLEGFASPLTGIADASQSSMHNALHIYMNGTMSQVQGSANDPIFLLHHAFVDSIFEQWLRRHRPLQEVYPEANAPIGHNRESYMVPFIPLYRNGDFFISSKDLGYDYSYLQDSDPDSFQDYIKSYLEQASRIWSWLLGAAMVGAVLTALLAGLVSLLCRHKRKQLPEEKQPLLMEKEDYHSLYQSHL

Experiment [3] has as its system GM03123 (NPC) fibroblast cell line. Nature of the experiment: NPC cholesterol activity: filipin staining, LSO ratio. Type of experiment: cell-based, human. The note with it: for LSO %: GM03123 (NPC), 48 hours. From the text:
(§1) Fibroblast cell lines derived from Alzheimer and Niemann-Pick Type C (NPC) patients and healthy controls were obtained from the […] (Camden, N.J., USA). Cell line GM03123 was derived from a NPC patient with two heterozygous mutations in the NPC1 gene. Cell line GM09503 was used as a healthy control for the NPC cell line. Cell line ND41001 was derived from a patient carrying a Presenilin 1 mutation with familial (early onset) Alzheimer's disease (AD). Cell line ND38530 was used as a healthy control for the AD cell line. Further details of the cell lines are available at the Cornell Cell Repository website (https://catalog.coriell.org/).
(§2) Cell culture work was carried out in sterile conditions in an Email Air Handling Class II Biological Safety Cabinet (AES Environmental Pty LTD, Australia). All cell lines were cultured in DMEM (10313-021, Life Technologies New Zealand) supplemented with 10% fetal calf serum (Thermo Fisher Scientific New Zealand), 1× GlutaMAX™ Supplement (stabilised L-glutamine, Gibco Life Technologies New Zealand), 100 units/mL penicillin and 100 units/mL streptomycin (Life Technologies New Zealand). Cell lines were maintained in or 75 cm^2 flasks (Corning, Invitro Technologies New Zealand) in a humidified incubator (Sanyo Electric Co. Ltd, Japan) at 37° C. and 5% CO2. Experimental cultures were carried out in the same media omitting the antibiotics to avoid any potential interaction with the compound being tested.
(§3) For experiments, cells were seeded at a density of 1.25×10^3 cells/mL in black, 96 well plates (Cell-carrier, Perkin Elmer, Scimed New Zealand) in a volume of 100 μL media and grown for 24 hours before treating. The media was then replaced with fresh media supplemented with the required treatment. Cell lines GM03123 and ND41001 were either left untreated, or treated with either 10 μM or 100 μM of the heparan sulphate compound dissolved in sterile deionised water (dH20), 10 μM suberoylanilide hydroxamic acid (SAHA) dissolved in DMSO, or 0.1% DMSO. The healthy control cell lines GM09503 and ND38530 were left untreated or treated with U18666A dissolved in sterile dH20 at a final concentration of 1 μg/mL. U18666A causes cholesterol accumulation in the cell and is therefore a positive control for the filipin stain. Cells were then grown for 48 hours.
(§4) Before fixing, cells were washed three times with 1× phosphate buffered saline (PBS). From this point all treatments and washes were undertaken on a rotating table at 45 revs per minute. Cells were fixed with 1.5% paraformaldehyde (PFA) in 1×PBS (Thermo Fisher Scientific New Zealand) for 20 minutes. Cells were then washed with 1×PBS for four minutes. This was repeated twice. The cells were then stained for 2 hours with 50 μg/mL Filipin dye (Filipin complex from Streptomyces filipinensis, Sigma Aldrich, Australia) protected from the light. With minimal light exposure, the cells were washed with 1×PBS for four minutes and this was repeated twice. Cells were left in 1×PBS for confocal microscopy. The filipin stained cells were imaged using a Perkin Elmer Opera™ high-throughput spinning disk confocal microscope using 405 nm laser and 20× water immersion objective. Perkin Elmer Acapella™ software was used for image analysis. In NPC cells cholesterol accumulates in organelles with the characteristics of late endosomes or early lysosomes. These can be described as lysosome-like storage organelles (LSO). Analysis of free cholesterol levels in the cells was carried out using a method designed for high throughput confocal images described by Pipalia et al., Automated microscopy screening for compounds that partially revert cholesterol accumulation in Niemann-Pick C cells, J. Lipid Res., 2006, 47(2): 284-301. A low fluorescence threshold was chosen which identified the total area occupied by cells and another higher threshold was chosen to determine the areas of bright filipin staining of cholesterol within the cell. […]

The subject of experiment [4] is ND41001 (AD) fibroblast cell line. The experiment is described as above. The format is cell-based, human. The following applies: 48 hours.
Description: as §1, §2, §3, §4

Setting [5] is: 10 μM, LSO ratio treated/untreated x 100.

The values that follow come from patent publication US11186603B2, “Heparan sulfate glycomimetic compounds and their pharmaceutical and cosmeceutical uses” (VICTORIA LINK LIMITED, priority 2017, dated 2021).

Where “and” joins values, the source holds several entries; their conditions need not be identical. Identical values can stand only once. Like-named read-outs stand apart in the source and are kept apart here.

As for `O=C(CCCCCCCNC(=O)CCOCC(COCCC(=O)NCCCCCCCC(=O)NCCCCCCOC1OC(COS(=O)(=O)[O-])C(OS(=O)(=O)[O-])C(OS(=O)(=O)[O-])C1OS(=O)(=O)[O-])(COCCC(=O)NCCCCCCCC(=O)NCCCCCCOC1OC(COS(=O)(=O)[O-])C(OS(=O)(=O)[O-])C(OS(=O)(=O)[O-])C1OS(=O)(=O)[O-])COCCC(=O)NCCCCCCCC(=O)NCCCCCCOC1OC(COS(=O)(=O)[O-])C(OS(=O)(=O)[O-])C(OS(=O)(=O)[O-])C1OS(=O)(=O)[O-])NCCCCCCOC1OC(COS(=O)(=O)[O-])C(OS(=O)(=O)[O-])C(OS(=O)(=O)[O-])C1OS(=O)(=O)[O-].[Na+].[Na+].[Na+].[Na+].[Na+].[Na+].[Na+].[Na+].[Na+].[Na+].[Na+].[Na+].[Na+].[Na+].[Na+].[Na+]` (centres unmarked) [Compound 17d], the “Collagen as % of No Treatment Control (Mean ± SD), Cell-associated” value in experiment [1] was 3,076 ± 803% and 5,116 ± 231%. Moreover, the “μg collagen (Mean ± SD), Cell-Associated Collagen Type 1” value in experiment [1] was 1.32 ± 0.35 µg and 2.20 ± 0.10 µg. Further, the “Hyaluronidase inhibition as a % of the "No Treatment" control (Mean ± SD)” value amounted to 0 ± 0% in the experiment with testicular hyaluronidase (100 nM), 0 ± 0% in the experiment with testicular hyaluronidase (1 μM) and 23 ± 1% in the experiment with testicular hyaluronidase (10 μM). Besides, the “inhibition of testicular hyaluronidase (in words)” value in the experiment on testicular hyaluronidase (summary of Example 11) is recorded as “effective inhibitors of testicular hyaluronidase”. The “inhibitory effect on tyrosinase activity (in words)” value in experiment [2] was “significant inhibitory effect on tyrosinase activity”. In addition, the “Tyrosinase inhibition as a % of the "No Treatment" control (Mean ± SD)” value is reported as 0 ± 0% in experiment [2] (0.1 µM), 0 ± 0% in experiment [2] (1 μM) and 44 ± 2% in experiment [2] (10 μM).
Turning to `O=C(CCCCCCCNC(=O)CCOCC(COCCC(=O)NCCCCCCCC(=O)NCCOCCOCCOCCC(=O)NCCCCCCOC1OC(COS(=O)(=O)[O-])C(OC2OC(COS(=O)(=O)[O-])C(OS(=O)(=O)[O-])C(OS(=O)(=O)[O-])C2OS(=O)(=O)[O-])C(OS(=O)(=O)[O-])C1OS(=O)(=O)[O-])(COCCC(=O)NCCCCCCCC(=O)NCCOCCOCCOCCC(=O)NCCCCCCOC1OC(COS(=O)(=O)[O-])C(OC2OC(COS(=O)(=O)[O-])C(OS(=O)(=O)[O-])C(OS(=O)(=O)[O-])C2OS(=O)(=O)[O-])C(OS(=O)(=O)[O-])C1OS(=O)(=O)[O-])COCCC(=O)NCCCCCCCC(=O)NCCOCCOCCOCCC(=O)NCCCCCCOC1OC(COS(=O)(=O)[O-])C(OC2OC(COS(=O)(=O)[O-])C(OS(=O)(=O)[O-])C(OS(=O)(=O)[O-])C2OS(=O)(=O)[O-])C(OS(=O)(=O)[O-])C1OS(=O)(=O)[O-])NCCOCCOCCOCCC(=O)NCCCCCCOC1OC(COS(=O)(=O)[O-])C(OC2OC(COS(=O)(=O)[O-])C(OS(=O)(=O)[O-])C(OS(=O)(=O)[O-])C2OS(=O)(=O)[O-])C(OS(=O)(=O)[O-])C1OS(=O)(=O)[O-].[Na+].[Na+].[Na+].[Na+].[Na+].[Na+].[Na+].[Na+].[Na+].[Na+].[Na+].[Na+].[Na+].[Na+].[Na+].[Na+].[Na+].[Na+].[Na+].[Na+].[Na+].[Na+].[Na+].[Na+].[Na+].[Na+].[Na+].[Na+]` (centres unmarked) [Compound 25a], the LSO % in experiment [3] (setting [5]) was 76.1%; in experiment [3] (100 μM), 64.2%; in experiment [4] (10 μM), 60.1%; in experiment [4] (100 μM), 67.9%. Besides, the “effect on filipin (cholesterol) fluorescence (in words)” value in experiment [3] (fibroblast cells derived from Niemann-Pick type C and Alzheimer's disease patients) is on record as “positive effect on filipin (cholesterol) fluorescence”.
As for `O=C(CCCCCCC(=O)Nc1ccccc1)NO` [SAHA, suberoylanilide hydroxamic acid, reference compound], the LSO % in experiment [3] (setting [5]) is given as 43.0%; in experiment [4] (10 μM), 42.4%.
